Results on 25 compounds are retold here after patent US20110178104A1, “Anti-Heparin Compounds” (POLYMEDIX INC., priority 2010, published 2011).

Experiment [1] has as its system enoxaparin (ENOX). Nature of the experiment: FXa chromogenic assay (absence of plasma), enoxaparin. The settings on record: enoxaparin 0.1 μg/mL, absence of plasma.
Description: Human antithrombin was mixed with an anticoagulant agent (a LMWH or fondaparinux); final concentrations were 0.22 μg/mL for the LMWHs and 0.07 μg/mL for fondaparinux. […] Absorbance was read every 30 seconds over a 4 minute period in a SpectraMax 250 instrument (Molecular Devices, Inc.). EC50 values are determined by a curve-fit program (SoftMax Pro) using the following formula:
FXa Chromogenic Assay (absence of plasma). Human antithrombin was mixed with an anticoagulant (a LMWH or fondaparinux); final concentrations were 0.1 μg/mL for the LMWHs and 0.02 μg/mL for fondaparinux. […] Absorbance was read every 30 seconds over a 4 minute period in a SpectraMax 250 instrument (Molecular Devices Inc.™) The slope of absorbance vs time was calculated for each compound concentration. EC50 values were determined using a curve fit program (GraphPad Prism 5).
Experiment [2] concerns fondaparinux (FONDAPX). Nature of the experiment: FXa chromogenic assay (absence of plasma), fondaparinux. To be noted: fondaparinux 0.02 μg/mL, absence of plasma.
In experiment [3] the test system is Unfractionated heparin. Nature of the experiment: aPTT clotting assay, UFH 0.4 U/mL in plasma (Example 10). To be noted: unfractionated heparin 0.4 U/mL in plasma; aPTT clotting. It counts as biochemical. As for the experimental part:
aPTT clotting Assay: Unfractionated heparin was mixed with plasma at a final concentration of 0.4 U/mL (or concentration which increases aPTT time to between 120 and 300 seconds). […] The ACL Elite Hemostasis analyzer (Beckman Coulter™) was used to add aPTT reagent (HemosIL SynthASil) to supplemented plasma. Clotting was initiated by addition of CaCl2 and time to clot was recorded.

Experiment [4] has as its system enoxaparin. Nature of the experiment: FXa amidolytic assay (Example 10), enoxaparin. To be noted: read-out: Enox FXa EC50; enoxaparin 0.1 ug/ml; human antithrombin, bovine Factor Xa.
Description: (§1) Two μl of test agent are added (range between 0.01 and 23 ug/ml) and incubated for 5 minutes at 23° C. Bovine Factor Xa was added to a final concentration of 0.636 nkat/mL and incubated for a further 10 minutes at 23° C.
Experiment [5] has as its system tinzaparin. Nature of the experiment: FXa amidolytic assay (Example 10), tinzaparin. To be noted: read-out: Tinzap FXa EC50; tinzaparin 0.1 ug/ml; human antithrombin, bovine Factor Xa.
Description: as §1
The test system of experiment [6] is fondaparinux. Nature of the experiment: FXa amidolytic assay (Example 10), fondaparinux. To be noted: read-out: Fondap FXa EC50; fondaparinux 0.02 μg/mL; human antithrombin, bovine Factor Xa.
Description: as §1

On to `COc1ccc(NC(=O)[C@H](N)CCCNC(=N)N)cc1C(=O)N[C@H](CCCNC(=N)N)C(=O)Nc1ccc(OC)c(C(=O)N[C@H](CCCNC(=N)N)C(=O)Nc2ccc(OCCNC(=N)N)c(C(=O)N[C@H](CCCNC(=N)N)C(=O)Nc3ccc(OCCNC(=N)N)c(C(N)=O)c3)c2)c1` [Compound 10], for which the “ENOX (FXa) EC50” value in experiment [1] is 1.43 µg/mL.

For `COc1ccc(NC(=O)[C@@H](CCCCNC(=N)N)NC(=O)c2cc(NC(=O)[C@@H](CCCCNC(=N)N)NC(=O)c3cc(NC(=O)[C@@H](CCCCNC(=N)N)NC(=O)c4cc(NC(=O)[C@H](N)CCCCNC(=N)N)ccc4OC)ccc3OC)ccc2OC)cc1C(N)=O` [Compound 12], the “ENOX (FXa) EC50” value in experiment [1] was found to be 0.36 µg/mL. The “FONDAPX (FXa) EC50” value in experiment [2] came out at 4.26 µg/mL.

For `COc1ccc(NC(=O)[C@@H](C)NC(=O)c2cc(NC(=O)[C@@H](CCCNC(=N)N)NC(=O)c3cc(NC(=O)[C@@H](CCCNC(=N)N)NC(=O)c4cc(NC(=O)[C@H](N)CCCNC(=N)N)ccc4OC)ccc3OC)ccc2OC)cc1C(N)=O` [Compound 13], the “ENOX (FXa) EC50” value in experiment [1] amounted to 0.88 µg/mL. Further, the “FONDAPX (FXa) EC50” value in experiment [2] was 6.72 µg/mL.

As to `COc1ccc(NC(=O)[C@@H](CCCNC(=N)N)NC(=O)c2cc(NC(=O)[C@@H](C)NC(=O)c3cc(NC(=O)[C@@H](CCCNC(=N)N)NC(=O)c4cc(NC(=O)[C@H](N)CCCNC(=N)N)ccc4OC)ccc3OC)ccc2OC)cc1C(N)=O` [Compound 14], the “ENOX (FXa) EC50” value in experiment [1] amounted to 2.04 µg/mL. In experiment [2], the “FONDAPX (FXa) EC50” value worked out at 10.31 µg/mL.

On to `COc1ccc(NC(=O)[C@H](N)CCCNC(=N)N)cc1C(=O)N[C@H](CCCNC(=N)N)C(=O)Nc1ccc(OC)c(C(=O)N[C@H](CCCNC(=N)N)C(=O)Nc2ccc(OC)c(C(=O)N[C@H](CCCNC(=N)N)C(=O)Nc3ccc(OCCNC(=N)N)c(C(N)=O)c3)c2)c1` [Compound 18], for which the “ENOX (FXa) EC50” value in experiment [1] was 0.57 µg/mL.

`N=C(N)NCCC[C@@H](N)C(=O)Nc1ccc(OCCNC(=N)N)c(C(=O)N[C@H](CCCNC(=N)N)C(=O)Nc2ccc(OCCNC(=N)N)c(C(=O)N[C@H](CCCNC(=N)N)C(=O)Nc3ccc(OCCNC(=N)N)c(C(=O)N[C@H](CCCNC(=N)N)C(=O)Nc4ccc(OCCNC(=N)N)c(C(N)=O)c4)c3)c2)c1` [Compound 31]: in experiment [1], the “ENOX (FXa) EC50” value worked out at 0.72 µg/mL.

Regarding `COc1ccc(NC(=O)[C@H](CCCN)NC(=O)c2cc(NC(=O)[C@H](CCCN)NC(=O)c3cc(NC(=O)[C@H](CCCN)NC(=O)c4cc(NC(=O)[C@@H](N)CCCN)ccc4OC)ccc3OC)ccc2OC)cc1C(N)=O` [Compound 89], the “ENOX (FXa) EC50” value in experiment [1] is 16.70 µg/mL.

In the case of `COc1cc(OC)c(C(=O)NCCCNC(=O)c2cc(C(=O)NCCCNC(=O)c3cc(C(=O)NCCCN)c(OC)cc3OC)c(OC)cc2OC)cc1C(=O)NCCCN` [Compound 408], the concentration giving a half-maximal response (EC50) is greater than 10 µM in experiment [3], greater than 5 µM in experiment [4], greater than 5 µM in experiment [5] and greater than 10 µM in experiment [6].

Consider `COc1cc(OC)c(C(=O)NCCCNC(=O)c2cc(C(=O)NCCCN)c(OC)cc2OC)cc1C(=O)O` [Compound 409], for which the concentration for a half-maximal effect (EC50) is greater than 10 µM in experiment [3], greater than 5 µM in experiment [4], greater than 5 µM in experiment [5] and greater than 10 µM in experiment [6].

With `COc1cc(OC)c(C(=O)N[C@H]2CC[C@@H](NC(=O)c3cc(C(N)=O)c(OCCCCCN)cc3OCCCCCN)CC2)cc1C(=O)N[C@H]1CC[C@@H](NC(=O)c2cc(C(N)=O)c(OCCCCCN)cc2OCCCCCN)CC1` [Compound 412], the EC50 was 0.687 µM in experiment [3], 0.125 µM in experiment [4], 0.113 µM in experiment [5] and 0.197 µM in experiment [6].

Consider `COc1cc(OC)c(C(=O)N[C@H]2CC[C@@H](NC(=O)c3cc(C(N)=O)c(OCCCCCN)cc3OCCCCCN)CC2)cc1C(=O)N[C@H]1CC[C@@H](N=C(N(C)C)N(C)C)CC1` [Compound 413], for which the EC50 came out at 7.06 µM in experiment [3], 4.65 µM in experiment [4], 2.77 µM in experiment [5] and 14.8 µM in experiment [6].

In the case of `COc1cc(OC)c(C(=O)N[C@H]2CC[C@@H](NC(=O)c3cc(C(=O)NCCN)c(OCCCCCN)cc3OCCCCCN)CC2)cc1C(=O)N[C@H]1CC[C@@H](N=C(N(C)C)N(C)C)CC1` [Compound 414], the half-maximal effective concentration (EC50) is greater than 10 µM in experiment [3], 3.32 µM in experiment [4], 2.06 µM in experiment [5] and greater than 10 µM in experiment [6].

Consider `COc1cc(OC)c(C(=O)N[C@H]2CC[C@@H](NC(=O)c3cc(C(=O)N4CCC(CN)CC4)c(OC)cc3OC)CC2)cc1C(=O)N[C@H]1CC[C@@H](NC(=O)c2cc(C(=O)N3CCC(CN)CC3)c(OC)cc2OC)CC1` [Compound 415], for which the EC50 in experiment [3] was greater than 10 µM; in experiment [4], greater than 5 µM; in experiment [5], greater than 5 µM; in experiment [6] it was greater than 10 µM.

With `COc1cc(OC)c(C(=O)N[C@H]2CC[C@@H](NC(=O)c3cc(C(=O)N4CCC(CN)CC4)c(OC)cc3OC)CC2)cc1C(=O)N[C@H]1CC[C@@H](N=C(N(C)C)N(C)C)CC1` [Compound 416], the half-maximal effective concentration (EC50) was greater than 10 µM in experiment [3], greater than 5 µM in experiment [4], greater than 5 µM in experiment [5] and greater than 10 µM in experiment [6].

As for `COc1cc(OC)c(C(=O)N[C@H]2CC[C@@H](NC(=O)c3cc(C(=O)N[C@H]4CC[C@@H](NC(=O)c5cc(C(=O)NC6CCNCC6)c(OC)cc5OC)CC4)c(OC)cc3OC)CC2)cc1C(=O)NC1CCNCC1` [Compound 417], the EC50 in experiment [3] was 2.22 µM; in experiment [4] it was 0.495 µM; in experiment [5], 0.2 µM; in experiment [6], 1.11 µM.

For `COc1cc(OC)c(C(=O)N[C@H]2CC[C@@H](NC(=O)c3cc(C(=O)N[C@H]4CC[C@@H](N=C(N(C)C)N(C)C)CC4)c(OC)cc3OC)CC2)cc1C(=O)NC1CCNCC1` [Compound 418], the EC50 is greater than 10 µM in experiment [3], greater than 5 µM in experiment [4], greater than 5 µM in experiment [5] and greater than 10 µM in experiment [6].

On to `COc1cc(OC)c(C(=O)N[C@H]2CC[C@@H](NC(=O)c3cc(C(=O)N4CCC(N)CC4)c(OC)cc3OC)CC2)cc1C(=O)N[C@H]1CC[C@@H](NC(=O)c2cc(C(=O)N3CCC(N)CC3)c(OC)cc2OC)CC1` [Compound 419], for which the 50% effective concentration (EC50) was greater than 10 µM in experiment [3], greater than 5 µM in experiment [4], greater than 5 µM in experiment [5] and greater than 10 µM in experiment [6].

As for `COc1cc(OC)c(C(=O)N[C@H]2CC[C@@H](NC(=O)c3cc(C(=O)N4CCC(N)CC4)c(OC)cc3OC)CC2)cc1C(=O)N[C@H]1CC[C@@H](N=C(N(C)C)N(C)C)CC1` [Compound 420], the half-maximal effective concentration (EC50) in experiment [3] was greater than 10 µM; in experiment [4], greater than 5 µM; in experiment [5], greater than 5 µM; in experiment [6], greater than 10 µM.

Consider `COc1cc(OC)c(C(=O)Nc2ccc(NC(=O)c3cc(C(=O)Nc4ccc(NC(=O)c5cc(C(=O)NCCN)c(OC)cc5OC)cc4)c(OC)cc3OC)cc2)cc1C(=O)NCCN` [Compound 421], for which the half-maximal effective concentration (EC50) in experiment [3] was 1.2 µM; in experiment [4] it was 0.238 µM; in experiment [5], 0.22 µM; in experiment [6], 0.159 µM.

As to `COc1cc(OC)c(C(=O)Nc2ccc(NC(=O)c3cc(C(=O)Nc4ccc(N=C(N(C)C)N(C)C)cc4)c(OC)cc3OC)cc2)cc1C(=O)NCCN` [Compound 422], the 50% effective concentration (EC50) was found to be 1.25 µM in experiment [3], 0.608 µM in experiment [4], 0.426 µM in experiment [5] and 1.89 µM in experiment [6].

In the case of `COc1cc(OC)c(C(=O)N[C@H]2CC[C@@H](NC(=O)c3cc(C(=O)N4CCC(CN)CC4)c(OCCCCCN)cc3OCCCCCN)CC2)cc1C(=O)N[C@H]1CC[C@@H](NC(=O)c2cc(C(=O)N3CCC(CN)CC3)c(OCCCCCN)cc2OCCCCCN)CC1` [Compound 423], the EC50 in experiment [3] was 3.15 µM; in experiment [4], 1.18 µM; in experiment [5] it was 0.296 µM; in experiment [6], greater than 10 µM.

Take `COc1cc(OC)c(C(=O)N[C@H]2CC[C@@H](NC(=O)c3cc(C(=O)N4CCC(CN)CC4)c(OCCCCCN)cc3OCCCCCN)CC2)cc1C(=O)N[C@H]1CC[C@@H](N=C(N(C)C)N(C)C)CC1` [Compound 424]: the EC50 in experiment [3] is greater than 10 µM; in experiment [4], greater than 5 µM; in experiment [5] it was greater than 5 µM; in experiment [6], greater than 10 µM.

For the compound `COc1cc(OC)c(C(=O)N[C@H]2CC[C@@H](NC(=O)c3cc(C(=O)NC4CCNCC4)c(OCCCCCN)cc3OCCCCCN)CC2)cc1C(=O)N[C@H]1CC[C@@H](NC(=O)c2cc(C(=O)NC3CCNCC3)c(OCCCCCN)cc2OCCCCCN)CC1` [Compound 425], the EC50 was 0.429 µM in experiment [3], 0.088 µM in experiment [4], 0.062 µM in experiment [5] and 0.502 µM in experiment [6].

In the case of `COc1cc(OC)c(C(=O)N[C@H]2CC[C@@H](NC(=O)c3cc(C(=O)N4CCC(N)CC4)c(OCCCCCN)cc3OCCCCCN)CC2)cc1C(=O)N[C@H]1CC[C@@H](NC(=O)c2cc(C(=O)N3CCC(N)CC3)c(OCCCCCN)cc2OCCCCCN)CC1` [Compound 426], the half-maximal effective concentration (EC50) was 11.3 µM in experiment [3], 2.75 µM in experiment [4], 0.53 µM in experiment [5] and greater than 10 µM in experiment [6].

Turning to `COc1ccc(NC(=O)[C@H](CCCCN)NC(=O)c2cc(C(=O)N[C@@H](CCCCN)C(=O)Nc3ccc(OC)c(C(=O)N[C@@H](CCCCN)C(N)=O)c3)c(OC)cc2OC)cc1C(=O)N[C@@H](CCCCN)C(N)=O` [Compound 427], the EC50 in experiment [3] was greater than 10 µM; in experiment [4], greater than 5 µM; in experiment [5], greater than 5 µM; in experiment [6], greater than 10 µM.

For orientation: EC50 means the concentration needed to bring the measured effect to its halfway point.
